According to PubChem BioAssay AID2060626 (Molecular Pharmacology Branch, DTP, NCI, 2025):

Each compound was assayed on 168753-222-R-J1-PDC complex spheroid viability (assay: Anticancer human tumor 168753-222-R-J1-PDC patient-derived bladder carcinoma cell line growth inhibition [CLK]). Settings: second compound 10 µM; first compound 0.0316 µM; active compounds read low.
Summary of the method: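 Multi-cell-type spheroids combined patient-derived tumor cells with HUVEC endothelial cells and human mesenchymal stem cells. Paired agents were dosed in half-log steps down from about clinical Cmax, or from 10 microM where Cmax was unknown.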
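Further: luminescence signal used as surrogate for viable cell amount; viability measured after seven days of drug exposure; 100% = DMSO vehicle control wells.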

| Compound | viability, T/C [%] |
| --- | --- |
| C=C(F)C(=O)N1CCN(c2nc(OCC3CCCN3C)nc3c2CCN(c2cccc4cccc(Cl)c24)C3)CC1CC#N (configuration not stated) + CNC(=O)c1ccc(Nc2nc(OC3CCCC3)c3c(-c4ccc5nc(C)oc5c4)c[nH]c3n2)c(OC)c1 | 22.6 |
| CC(CO)NC(=O)c1cc(-c2ccc(Cl)cc2)nn(-c2cnn(C)c2)c1=O (configuration not stated) + CNC(=O)c1ccc(Nc2nc(OC3CCCC3)c3c(-c4ccc5nc(C)oc5c4)c[nH]c3n2)c(OC)c1 | 18.5 |
| CC(Nc1ccc2c(c1)OCCn1cc(N3C(=O)OCC3C(F)F)nc1-2)C(N)=O (configuration not stated) + CNC(=O)c1ccc(Nc2nc(OC3CCCC3)c3c(-c4ccc5nc(C)oc5c4)c[nH]c3n2)c(OC)c1 | 12.8 |
| COc1c(OCCCN2CCOCC2)ccc2c3n(c(=NC(=O)c4cnc(N)nc4)nc12)CCN3 + CNC(=O)c1ccc(Nc2nc(OC3CCCC3)c3c(-c4ccc5nc(C)oc5c4)c[nH]c3n2)c(OC)c1 | 3.75 |

Same assay, conditions: second compound 10 µM; first compound 0.1 µM; active compounds read low

| Compound | viability, T/C [%] |
| --- | --- |
| C#Cc1c(F)ccc2cc(O)cc(-c3ncc4c(N5CC6CCC(C5)N6)nc(OCC56CCCN5CC(F)C6)nc4c3F)c12 (configuration not stated) + CNC(=O)c1ccc(Nc2nc(OC3CCCC3)c3c(-c4ccc5nc(C)oc5c4)c[nH]c3n2)c(OC)c1 | 21.5 |
| C=C(F)C(=O)N1CCN(c2nc(OCC3CCCN3C)nc3c2CCN(c2cccc4cccc(Cl)c24)C3)CC1CC#N (configuration not stated) + CNC(=O)c1ccc(Nc2nc(OC3CCCC3)c3c(-c4ccc5nc(C)oc5c4)c[nH]c3n2)c(OC)c1 | 21.2 |
| CC(CO)NC(=O)c1cc(-c2ccc(Cl)cc2)nn(-c2cnn(C)c2)c1=O (configuration not stated) + CNC(=O)c1ccc(Nc2nc(OC3CCCC3)c3c(-c4ccc5nc(C)oc5c4)c[nH]c3n2)c(OC)c1 | 26.8 |
| CC(Nc1ccc2c(c1)OCCn1cc(N3C(=O)OCC3C(F)F)nc1-2)C(N)=O (configuration not stated) + CNC(=O)c1ccc(Nc2nc(OC3CCCC3)c3c(-c4ccc5nc(C)oc5c4)c[nH]c3n2)c(OC)c1 | 9.3 |
| COc1c(OCCCN2CCOCC2)ccc2c3n(c(=NC(=O)c4cnc(N)nc4)nc12)CCN3 + CNC(=O)c1ccc(Nc2nc(OC3CCCC3)c3c(-c4ccc5nc(C)oc5c4)c[nH]c3n2)c(OC)c1 | 2.46 |

Same assay, conditions: second compound 10 µM; first compound 0.316 µM; active compounds read low

| Compound | viability, T/C [%] |
| --- | --- |
| C#Cc1c(F)ccc2cc(O)cc(-c3ncc4c(N5CC6CCC(C5)N6)nc(OCC56CCCN5CC(F)C6)nc4c3F)c12 (configuration not stated) + CNC(=O)c1ccc(Nc2nc(OC3CCCC3)c3c(-c4ccc5nc(C)oc5c4)c[nH]c3n2)c(OC)c1 | 18.6 |
| C=C(F)C(=O)N1CCN(c2nc(OCC3CCCN3C)nc3c2CCN(c2cccc4cccc(Cl)c24)C3)CC1CC#N (configuration not stated) + CNC(=O)c1ccc(Nc2nc(OC3CCCC3)c3c(-c4ccc5nc(C)oc5c4)c[nH]c3n2)c(OC)c1 | 24.7 |
| CC(CO)NC(=O)c1cc(-c2ccc(Cl)cc2)nn(-c2cnn(C)c2)c1=O (configuration not stated) + CNC(=O)c1ccc(Nc2nc(OC3CCCC3)c3c(-c4ccc5nc(C)oc5c4)c[nH]c3n2)c(OC)c1 | 27.3 |
| CC(Nc1ccc2c(c1)OCCn1cc(N3C(=O)OCC3C(F)F)nc1-2)C(N)=O (configuration not stated) + CNC(=O)c1ccc(Nc2nc(OC3CCCC3)c3c(-c4ccc5nc(C)oc5c4)c[nH]c3n2)c(OC)c1 | 3.4 |
| COc1c(OCCCN2CCOCC2)ccc2c3n(c(=NC(=O)c4cnc(N)nc4)nc12)CCN3 + CNC(=O)c1ccc(Nc2nc(OC3CCCC3)c3c(-c4ccc5nc(C)oc5c4)c[nH]c3n2)c(OC)c1 | 0.34 |

Same assay, conditions: second compound 10 µM; first compound 1 µM; active compounds read low

| Compound | viability, T/C [%] |
| --- | --- |
| C#Cc1c(F)ccc2cc(O)cc(-c3ncc4c(N5CC6CCC(C5)N6)nc(OCC56CCCN5CC(F)C6)nc4c3F)c12 (configuration not stated) + CNC(=O)c1ccc(Nc2nc(OC3CCCC3)c3c(-c4ccc5nc(C)oc5c4)c[nH]c3n2)c(OC)c1 | 14.8 |
| C=C(F)C(=O)N1CCN(c2nc(OCC3CCCN3C)nc3c2CCN(c2cccc4cccc(Cl)c24)C3)CC1CC#N (configuration not stated) + CNC(=O)c1ccc(Nc2nc(OC3CCCC3)c3c(-c4ccc5nc(C)oc5c4)c[nH]c3n2)c(OC)c1 | 19.3 |
| CC(CO)NC(=O)c1cc(-c2ccc(Cl)cc2)nn(-c2cnn(C)c2)c1=O (configuration not stated) + CNC(=O)c1ccc(Nc2nc(OC3CCCC3)c3c(-c4ccc5nc(C)oc5c4)c[nH]c3n2)c(OC)c1 | 22.2 |
| CC(Nc1ccc2c(c1)OCCn1cc(N3C(=O)OCC3C(F)F)nc1-2)C(N)=O (configuration not stated) + CNC(=O)c1ccc(Nc2nc(OC3CCCC3)c3c(-c4ccc5nc(C)oc5c4)c[nH]c3n2)c(OC)c1 | 0.76 |
| COc1c(OCCCN2CCOCC2)ccc2c3n(c(=NC(=O)c4cnc(N)nc4)nc12)CCN3 + CNC(=O)c1ccc(Nc2nc(OC3CCCC3)c3c(-c4ccc5nc(C)oc5c4)c[nH]c3n2)c(OC)c1 | 3.45 |

Same assay, conditions: second compound 10 µM; first compound 3.16 µM; active compounds read low

| Compound | viability, T/C [%] |
| --- | --- |
| C#Cc1c(F)ccc2cc(O)cc(-c3ncc4c(N5CC6CCC(C5)N6)nc(OCC56CCCN5CC(F)C6)nc4c3F)c12 (configuration not stated) + CNC(=O)c1ccc(Nc2nc(OC3CCCC3)c3c(-c4ccc5nc(C)oc5c4)c[nH]c3n2)c(OC)c1 | 11.7 |
| C=C(F)C(=O)N1CCN(c2nc(OCC3CCCN3C)nc3c2CCN(c2cccc4cccc(Cl)c24)C3)CC1CC#N (configuration not stated) + CNC(=O)c1ccc(Nc2nc(OC3CCCC3)c3c(-c4ccc5nc(C)oc5c4)c[nH]c3n2)c(OC)c1 | 17.5 |
| CC(CO)NC(=O)c1cc(-c2ccc(Cl)cc2)nn(-c2cnn(C)c2)c1=O (configuration not stated) + CNC(=O)c1ccc(Nc2nc(OC3CCCC3)c3c(-c4ccc5nc(C)oc5c4)c[nH]c3n2)c(OC)c1 | 30 |
| CC(Nc1ccc2c(c1)OCCn1cc(N3C(=O)OCC3C(F)F)nc1-2)C(N)=O (configuration not stated) + CNC(=O)c1ccc(Nc2nc(OC3CCCC3)c3c(-c4ccc5nc(C)oc5c4)c[nH]c3n2)c(OC)c1 | 0.78 |

Same assay, conditions: second compound 10 µM; first compound 10 µM; active compounds read low

| Compound | viability, T/C [%] |
| --- | --- |
| C#Cc1c(F)ccc2cc(O)cc(-c3ncc4c(N5CC6CCC(C5)N6)nc(OCC56CCCN5CC(F)C6)nc4c3F)c12 (configuration not stated) + CNC(=O)c1ccc(Nc2nc(OC3CCCC3)c3c(-c4ccc5nc(C)oc5c4)c[nH]c3n2)c(OC)c1 | 11.3 |
| C=C(F)C(=O)N1CCN(c2nc(OCC3CCCN3C)nc3c2CCN(c2cccc4cccc(Cl)c24)C3)CC1CC#N (configuration not stated) + CNC(=O)c1ccc(Nc2nc(OC3CCCC3)c3c(-c4ccc5nc(C)oc5c4)c[nH]c3n2)c(OC)c1 | 14.6 |
| CC(CO)NC(=O)c1cc(-c2ccc(Cl)cc2)nn(-c2cnn(C)c2)c1=O (configuration not stated) + CNC(=O)c1ccc(Nc2nc(OC3CCCC3)c3c(-c4ccc5nc(C)oc5c4)c[nH]c3n2)c(OC)c1 | 27.7 |
| CC(Nc1ccc2c(c1)OCCn1cc(N3C(=O)OCC3C(F)F)nc1-2)C(N)=O (configuration not stated) + CNC(=O)c1ccc(Nc2nc(OC3CCCC3)c3c(-c4ccc5nc(C)oc5c4)c[nH]c3n2)c(OC)c1 | 1.14 |
